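Abbreviation: GI50, concentration required for 50% inhibition of growth. TGI denotes the concentration required for complete inhibition of growth.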
Assays:
Experiment in all cases: inhibition of tumour cell growth, NCI panel, 384-well format
786-0 renal = tested on: 786-0 renal
A498 renal = tested on: A498 renal
A549 NSCLC = tested on: A549 NSCLC
ACHN renal = tested on: ACHN renal
BT-549 breast = tested on: BT-549 breast
CAKI-1 renal = tested on: CAKI-1 renal
CCRF-CEM leukemia = tested on: CCRF-CEM leukemia
COLO 205 colon = tested on: COLO 205 colon
DU-145 prostate = tested on: DU-145 prostate
EKVX NSCLC = tested on: EKVX NSCLC
HCC-2998 colon = tested on: HCC-2998 colon
HCT-116 colon = tested on: HCT-116 colon
HCT-15 colon = tested on: HCT-15 colon
HL-60(TB) leukemia = tested on: HL-60(TB) leukemia
HOP-62 NSCLC = tested on: HOP-62 NSCLC
HOP-92 NSCLC = tested on: HOP-92 NSCLC
HS 578T breast = tested on: HS 578T breast
HT29 colon = tested on: HT29 colon
IGROV1 ovarian = tested on: IGROV1 ovarian
K-562 leukemia = tested on: K-562 leukemia
KM12 colon = tested on: KM12 colon
LOX IMVI melanoma = tested on: LOX IMVI melanoma
M14 melanoma = tested on: M14 melanoma
MALME-3M melanoma = tested on: MALME-3M melanoma
MCF7 breast = tested on: MCF7 breast
MDA-MB-231 breast = tested on: MDA-MB-231 breast
MDA-MB-435 melanoma = tested on: MDA-MB-435 melanoma
MDA-MB-468 breast = tested on: MDA-MB-468 breast
MOLT-4 leukemia = tested on: MOLT-4 leukemia
NCI-H226 lung = tested on: NCI-H226 lung
NCI-H23 lung = tested on: NCI-H23 lung
NCI-H322M lung = tested on: NCI-H322M lung
NCI-H460 NSCLC = tested on: NCI-H460 NSCLC
NCI-H522 lung = tested on: NCI-H522 lung
NCI/ADR-RES ovarian = tested on: NCI/ADR-RES ovarian
OVCAR-3 ovarian = tested on: OVCAR-3 ovarian
OVCAR-4 ovarian = tested on: OVCAR-4 ovarian
OVCAR-5 ovarian = tested on: OVCAR-5 ovarian
OVCAR-8 ovarian = tested on: OVCAR-8 ovarian
PC-3 prostate = tested on: PC-3 prostate
RPMI-8226 leukemia = tested on: RPMI-8226 leukemia
RXF 393 renal = tested on: RXF 393 renal
SF-268 CNS = tested on: SF-268 CNS
SF-295 CNS = tested on: SF-295 CNS
SF-539 CNS = tested on: SF-539 CNS
SK-MEL-28 melanoma = tested on: SK-MEL-28 melanoma
SK-MEL-5 melanoma = tested on: SK-MEL-5 melanoma
SK-OV-3 ovarian = tested on: SK-OV-3 ovarian
SN12C renal = tested on: SN12C renal
SNB-19 CNS = tested on: SNB-19 CNS
SNB-75 CNS = tested on: SNB-75 CNS
SW-620 colon = tested on: SW-620 colon
T-47D breast = tested on: T-47D breast
TK-10 renal = tested on: TK-10 renal
U251 glioblastoma = tested on: U251 glioblastoma
UACC-257 melanoma = tested on: UACC-257 melanoma
UACC-62 melanoma = tested on: UACC-62 melanoma
UO-31 renal = tested on: UO-31 renal

SMILES: CNC(=O)c1ccc(Nc2nc(OC3CCCC3)c3c(-c4ccc5nc(C)oc5c4)c[nH]c3n2)c(OC)c1
- GI50 ([…]-0 renal): 65 nM
- TGI (786-0 renal): 14200 nM
- GI50 (A498 renal): 239 nM
- TGI (A498 renal): 9430 nM
- GI50 (A549 NSCLC): 22.3 nM
- TGI (A549 NSCLC): 2890 nM
- GI50 (ACHN renal): 87.8 nM
- TGI (ACHN renal): 15500 nM
- GI50 (BT-549 breast): 94.9 nM
- TGI (BT-549 breast): 65100 nM
- GI50 (CAKI-1 renal): 387 nM
- TGI (CAKI-1 renal): 3290 nM
- GI50 (CCRF-CEM leukemia): 22.6 nM
- TGI (CCRF-CEM leukemia): 44.5 nM
- GI50 (COLO 205 colon): 33.1 nM
- TGI (COLO 205 colon): 233 nM
- GI50 (DU-145 prostate): 74.3 nM
- TGI (DU-145 prostate): 15800 nM
- GI50 (EKVX NSCLC): 187 nM
- TGI (EKVX NSCLC): 15300 nM
- GI50 (HCC-2998 colon): 24500 nM
- TGI (HCC-2998 colon): > 100000 nM
- GI50 (HCT-116 colon): 46.7 nM
- TGI (HCT-116 colon): 11000 nM
- GI50 (HCT-15 colon): 37.5 nM
- TGI (HCT-15 colon): 2840 nM
- GI50 (HL-60(TB) leukemia): 40.8 nM
- TGI (HL-60(TB) leukemia): 1310 nM
- GI50 (HOP-62 NSCLC): 37.6 nM
- TGI (HOP-62 NSCLC): 5770 nM
- GI50 (HOP-92 NSCLC): 681 nM
- TGI (HOP-92 NSCLC): 9340 nM
- GI50 (HS 578T breast): 77.5 nM
- TGI (HS 578T breast): 891 nM
- GI50 (HT29 colon): 84.5 nM
- TGI (HT29 colon): > 100000 nM
- GI50 (IGROV1 ovarian): 145 nM
- TGI (IGROV1 ovarian): 15800 nM
- GI50 (K-562 leukemia): 121 nM
- TGI (K-562 leukemia): 19400 nM
- GI50 (KM12 colon): 81.7 nM
- TGI (KM12 colon): > 100000 nM
- GI50 (LOX IMVI melanoma): 45.4 nM
- TGI (LOX IMVI melanoma): 14200 nM
- GI50 (M14 melanoma): 84.3 nM
- TGI (M14 melanoma): 63800 nM
- GI50 (MALME-3M melanoma): 93.6 nM
- TGI (MALME-3M melanoma): 14200 nM
- GI50 (MCF7 breast): 130 nM
- TGI (MCF7 breast): 15700 nM
- GI50 (MDA-MB-231 breast): 290 nM
- TGI (MDA-MB-231 breast): > 100000 nM
- GI50 (MDA-MB-435 melanoma): 11000 nM
- TGI (MDA-MB-435 melanoma): 49100 nM
- GI50 (MDA-MB-468 breast): 45.4 nM
- TGI (MDA-MB-468 breast): 226 nM
- GI50 (MOLT-4 leukemia): 11.8 nM
- TGI (MOLT-4 leukemia): 30.4 nM
- GI50 (NCI-H226 lung): 381 nM
- TGI (NCI-H226 lung): 9700 nM
- GI50 (NCI-H23 lung): 64.3 nM
- TGI (NCI-H23 lung): 615 nM
- GI50 (NCI-H322M lung): 593 nM
- TGI (NCI-H322M lung): 52800 nM
- GI50 (NCI-H460 NSCLC): 34.8 nM
- TGI (NCI-H460 NSCLC): 1710 nM
- GI50 (NCI-H522 lung): 99.8 nM
- TGI (NCI-H522 lung): 1440 nM
- GI50 (NCI/ADR-RES ovarian): 316 nM
- TGI (NCI/ADR-RES ovarian): 60500 nM
- GI50 (OVCAR-3 ovarian): 169 nM
- TGI (OVCAR-3 ovarian): 965 nM
- GI50 (OVCAR-4 ovarian): 1900 nM
- TGI (OVCAR-4 ovarian): 17700 nM
- GI50 (OVCAR-5 ovarian): 146 nM
- TGI (OVCAR-5 ovarian): > 100000 nM
- GI50 (OVCAR-8 ovarian): 45.8 nM
- TGI (OVCAR-8 ovarian): 12500 nM
- GI50 (PC-3 prostate): 896 nM
- TGI (PC-3 prostate): 15200 nM
- GI50 (RPMI-8226 leukemia): 61.8 nM
- TGI (RPMI-8226 leukemia): 271 nM
- GI50 (RXF 393 renal): 106 nM
- TGI (RXF 393 renal): 1960 nM
- GI50 (SF-268 CNS): 18.5 nM
- TGI (SF-268 CNS): 72.7 nM
- GI50 (SF-295 CNS): 265 nM
- TGI (SF-295 CNS): > 100000 nM
- GI50 (SF-539 CNS): 47.6 nM
- TGI (SF-539 CNS): 1840 nM
- GI50 (SK-MEL-28 melanoma): 5580 nM
- TGI (SK-MEL-28 melanoma): 30500 nM
- GI50 (SK-MEL-5 melanoma): 73.5 nM
- TGI (SK-MEL-5 melanoma): 1550 nM
- GI50 (SK-OV-3 ovarian): 352 nM
- TGI (SK-OV-3 ovarian): 5280 nM
- GI50 (SN12C renal): 224 nM
- TGI (SN12C renal): 2760 nM
- GI50 (SNB-19 CNS): 225 nM
- TGI (SNB-19 CNS): 41600 nM
- GI50 (SNB-75 CNS): 68.6 nM
- TGI (SNB-75 CNS): 1780 nM
- GI50 (SW-620 colon): 53.5 nM
- TGI (SW-620 colon): 762 nM
- GI50 (T-47D breast): 250 nM
- TGI (T-47D breast): > 100000 nM
- GI50 (TK-10 renal): 626 nM
- TGI (TK-10 renal): > 100000 nM
- GI50 (U251 glioblastoma): 63 nM
- TGI (U251 glioblastoma): 16000 nM
- GI50 (UACC-257 melanoma): 328 nM
- TGI (UACC-257 melanoma): 47300 nM
- GI50 (UACC-62 melanoma): 167 nM
- TGI (UACC-62 melanoma): 96400 nM
- GI50 (UO-31 renal): 89.8 nM
- TGI (UO-31 renal): > 100000 nM

Source: PubChem BioAssay (NCI)
